Results published in patent US20240010610A1, “COMPOUNDS FOR TREATING SEGMENTAL PROGEROID SYNDROMES” (Progelife, priority 2020, published 2024).
Like-named read-outs stand apart in the source and are kept apart here. Marks after values point to notes of the source that are not given here. Where a SMILES comes first, the peptide text is derived from it. The star is where a group is joined. Cbz = O=C(OCc1ccccc1)*

Assays:
progerin = test: Progerin expression by western blot, normalised to total protein (Revert protein stain); assay type: cell-based, human; conditions: T=72 hours, mean of n=3 unless footnoted; for Mean decrease of progerin expression relative to DMSO control: compounds tested at CV25, HGPS cells; for Mean change of progerin expression relative to DMSO control: compounds tested at CV75, HGPS cells, decrease (−) or increase
Protocol: All molecules were diluted in DMSO at 10 mM. […] Drug efficiency was evaluated in 6-well plates.
Total fibroblast proteins were extracted after 72 hours treatment in 100 μL of NP40 (Invitrogen) with 1× protease and phosphatase inhibitor cocktail (Life Technologies). Lysats were incubated on ice for 30 minutes, with vortexing at 10-minute intervals. Finally, they were sonicated four times (20 sec each) and then centrifuged at 13000 rpm for 10 minutes at 4° C.
Protein concentrations were determined with the BCA™ Protein Assay (Life Technologies).
Protein lysates were separated on Nupage Novex 4-12% Bis-Tris Midi precast gels (Life Technologies) and transferred to Immobilon-FL PVDF membranes (Millipore, Molsheim, France). Membranes were blocked for one hour in 1:1 diluted blocking buffer for near infrared fluorescent western blotting (Rockland, Le Perray, France). Blocked membranes were incubated with primary antibodies overnight at 4° C., following which they were washed and incubated with IR-Dye conjugated secondary antibodies for one hour at RT. Bound antibodies were detected and analyzed on an Odyssey imaging system (Li-COR Biosciences, Bad Homburg, Germany) according to the manufacturer's instructions. Revert Protein Stain (Li-COR Biosciences) was used as a total protein loading control in addition to two traditional protein loading control GAPDH and Actin. Progerin and SRSF1 levels were quantified and normalized by Revert staining using Image Studio Lite™ software developed by Li-COR.
The following antibodies were used in this study: rabbit monoclonal anti-lamin A/C (ab108922, 1/1000, Abcam, Amsterdam, Netherlands), rabbit monoclonal anti-SRSF1 (SF2) (ab129108, 1/1000, Abcam), mouse monoclonal anti-GAPDH (MAB374, 1/40000, Millipore, Molsheim, France) and mouse monoclonal anti-actin (MAB1501R, 1/10000, Millipore. Secondary antibodies conjugated with IR-Dye 800CW or 680 were used according to the manufacturer's instructions (926-32213 and 926-68072, 1/5000, Li-COR Biosciences).
(§1) Mean decrease of progerin expression (presented as a percentage of the concentration measured in DMSO control) with compounds tested at CV25, in HGPS cells at T=72 hours, determined by western blot analysis and normalised to the total amount of protein (Revert protein stain) (mean of n=3 (range)) is presented in the following Table 1:
as §1, with “change (decrease (−) or increase)” for “decrease”, “CV75,” for “CV25,”, “2: […]” for “1:”

HGPS fibroblast [1] = conditions: human, 72 h
Protocol: (§2) Fibroblasts from HGPS donors from passage 18 to 24 were cultured in DMEM low glucose (Life Technologies, Courtabœuf, France) containing 15% FBS (Life Technologies), 2 mM L-glutamine (Life Technologies) and 100 U/mL penicillin-streptomycin (Life Technologies) at 37° C. in a humidified atmosphere containing 5% CO2.
(§3) All molecules were diluted in DMSO at 10 mM. Concentrations from 100 μM to 0.0001 nM were used to test cell viability in 96-well plates. Drug efficiency was evaluated in 6-well plates.
(§4) Assays were carried out in 96-well microplates. After 72 hours of treatment, the cells were washed once with 100 μL DPBS (no calcium, no magnesium). Then 100 μl of PrestoBlue solution (Life Technologies) diluted at 10% in DPBS was added to each well. Plates were incubated at 37° C. for 30 minutes. The fluorescence intensity was measured by multiwell plate reader (Glomax microplate reader, Promega, Charbonnières les Bains, France) using green filter (Excitation 525 nm/emission 580-640 nm). Fluorescence intensities values were pasted in Prism Software (Graph Pad, San Diego, CA) to perform a dose response analysis. CV25 correspond to drug concentrations at which HGPS fibroblast cell viability was 25%. CV75 correspond to drug concentrations at which HGPS fibroblast cell viability was 75%.

HGPS fibroblast [2] = test: Cell viability and assessment of toxicity (PrestoBlue, dose response); conditions: 72 hours of treatment
Protocol: as §2, §3, §4

Compound	CV25 (HGPS fibroblast [1])	CV75 (HGPS fibroblast [1])	Mean decrease of progerin expression relative to DMSO control (progerin)	Mean change of progerin expression relative to DMSO control (progerin)	CV25 (HGPS fibroblast [2]; drug concentration at which HGPS fibroblast cell viability was 25%)	CV75 (HGPS fibroblast [2]; drug concentration at which HGPS fibroblast cell viability was 75%)
CC(=O)N[C@@H](CC(C)C)C(=O)N[C@@H](CC(C)C)C(=O)N[C@H](C=O)CC(C)C [Compound 3] (Ac-Leu-Leu-Leu-aldehyde)	1.800 µM	0.720 µM	71%	0%		
CC(C)C[C@@H](C=O)NC(=O)[C@H](CC(C)C)NC(=O)[C@H](Cc1ccccc1)NC(=O)OCc1ccccc1 [Compound 4, Z-Phenylalanine-Leucine-Leucinal] (Cbz-Phe-Leu-Leu-aldehyde)	0.402 µM	0.133 µM	70%	−12%		
CC(C)C[C@@H](/C=N/NC(N)=O)NC(=O)[C@H](CC(C)C)NC(=O)[C@H](CC(C)C)NC(=O)OCc1ccccc1 [Compound 16]	1.750 µM	0.195 µM	66%	0%		
CC(C)C[C@@H](C=O)NC(=O)[C@H](CC(C)C)NC(=O)[C@H](CC(C)C)NC(=O)OCc1ccccc1 [Compound 1, Z-Leu-Leu-Leucinal, reference compound] (Cbz-Leu-Leu-Leu-aldehyde)			67* %	−3* %	0.270 µM	0.137 µM
CC(C)C[C@@H](C=O)NC(=O)[C@H](CC(C)C)NC(=O)[C@H](CC(C)C)NC(=O)c1cnccn1 [Compound 7]	5.5 µM	2.1 µM	79%	−36%		
CC(C)C[C@@H](C=O)NC(=O)[C@H](Cc1ccccc1)NC(=O)[C@H](CC(C)C)NC(=O)OCc1ccccc1 [Compound 6, Z-Leucine-Phenylalanine-Leucinal] (Cbz-Leu-Phe-Leu-aldehyde)	0.142 µM	0.060 µM	69%	6%		

Continued, in another order:

CV25 (HGPS fibroblast [1])	CV75 (HGPS fibroblast [1])	Compound	Mean decrease of progerin expression relative to DMSO control (progerin)	Mean change of progerin expression relative to DMSO control (progerin)	CV25 (HGPS fibroblast [2]; drug concentration at which HGPS fibroblast cell viability was 25%)	CV75 (HGPS fibroblast [2]; drug concentration at which HGPS fibroblast cell viability was 75%)
0.589 µM	0.155 µM	CC(C)C[C@@H](C=O)NC(=O)[C@H](CC(C)C)NC(=O)[C@H](CC(C)C)NC(=O)Cc1cccc(CC(=O)N[C@@H](CC(C)C)C(=O)N[C@@H](CC(C)C)C(=O)N[C@H](C=O)CC(C)C)c1 [Compound 14]	66%	−1%		
0.152 µM	0.073 µM	CC(C)C[C@@H](C=O)NC(=O)[C@H](CC(C)C)NC(=O)[C@H](CC(C)C)NC(=O)Cc1ccc(F)cc1F [Compound 8]	47%	−16%		
0.020 µM	0.007 µM	CC(C)C[C@H](NC(=O)OCc1ccccc1)C(=O)N[C@@H](CC(C)C)C(=O)N[C@H](C(=O)N[C@H](C=O)Cc1ccc(O)cc1)C(C)C [Compound 13] (Cbz-LLVY-aldehyde)	68*** %	−29*** %		
0.063 µM	0.001 µM	CC(C)C[C@@H](C=O)NC(=O)[C@H](CC(C)C)NC(=O)[C@H](CC(C)C)NC(=O)c1cc(Cl)ccc1Cl [Compound 12]	61** %	−1** %		
